Laboratory results reported in the NIST ThermoML archive (doi:10.1016/j.tca.2012.04.001).

Legend:
[1] = 101.33 kPa, Liquid, Vibrating tube method
[2] = xn = mol fraction of the nth substance listed; settings: 101 kPa, Liquid, Vibrating tube method

CCCCCl [1-chlorobutane]
[1]
Settings | mass density [kg/m3]
288.15 K | 891.747
303.15 K | 875.099
313.15 K | 863.833

CCCCCl [1-chlorobutane] + CCC(C)=O
mass density [kg/m3], [2]
Settings | 288.15 K | 303.15 K | 313.15 K
x1 = 0.0603 | 815.629 | 799.819 | 789.16
x1 = 0.102 | 819.225 | 803.373 | 792.657
x1 = 0.1968 | 827.479 | 811.507 | 800.7
x1 = 0.2964 | 835.868 | 819.774 | 808.881
x1 = 0.4017 | 844.704 | 828.487 | 817.514
x1 = 0.4502 | 848.687 | 832.432 | 821.402
x1 = 0.5138 | 853.847 | 837.516 | 826.466
x1 = 0.5467 | 856.509 | 840.156 | 829.081
x1 = 0.6451 | 864.357 | 847.919 | 836.788
x1 = 0.6988 | 868.609 | 852.133 | 840.975
x1 = 0.7994 | 876.429 | 859.878 | 848.676
x1 = 0.8296 | 878.808 | 862.217 | 850.983
x1 = 0.9037 | 884.435 | 867.832 | 856.591
x1 = 0.9336 | 886.734 | 870.09 | 858.856

CCCCCl [1-chlorobutane] + CCCCCCC
mass density [kg/m3], [2]
Settings | 288.15 K | 303.15 K | 313.15 K
x1 = 0.0407 | 694.279 | 681.416 | 672.687
x1 = 0.0779 | 699.652 | 686.682 | 677.87
x1 = 0.1497 | 710.416 | 697.174 | 688.219
x1 = 0.2169 | 720.981 | 707.546 | 698.49
x1 = 0.2496 | 726.25 | 712.73 | 703.568
x1 = 0.2565 | 727.4 | 713.798 | 704.618
x1 = 0.2999 | 734.714 | 720.999 | 711.752
x1 = 0.363 | 745.784 | 731.835 | 722.416
x1 = 0.4023 | 752.916 | 738.839 | 729.286
x1 = 0.5009 | 771.635 | 757.206 | 747.426
x1 = 0.5052 | 772.539 | 758.088 | 748.294
x1 = 0.5987 | 791.61 | 776.768 | 766.715
x1 = 0.7138 | 817.052 | 801.757 | 791.398
x1 = 0.7493 | 825.378 | 809.928 | 799.44
x1 = 0.8009 | 837.92 | 822.176 | 811.608
x1 = 0.8875 | 860.284 | 844.077 | 833.14
x1 = 0.9476 | 876.694 | 860.27 | 849.181
